The text below walks through data of patent US5047555A, “4-aminophenol derivatives and processes for preparing the same” (Tanabe Seiyaku Co., Ltd., priority 1988, dated 1991).

Each structure is given as a SMILES string.

Tested on in the first test: not given
Assay: not given
The conditions noted are these: stabilizer for polymers; cited from earlier work.
Consider `CCCCCCCCCCCCCCCCCC(=O)Nc1cc(C(C)(C)C)c(O)c(C(C)(C)C)c1` [4-(stearoylamino)-2,6-di-tert-butylphenol], for which the antioxidant activity entry was “antioxidant activity”.

As for `CCCCCCCCCCCC(=O)Nc1cc(CC)c(O)c(C(C)(C)C)c1` [4-(lauroylamino)-2-ethyl-6-tert-butylphenol], the antioxidant activity result was “antioxidant activity”.

The test system of the next test is lipoxygenase.
Assay: not given
The settings on record: cited from earlier work.
As to `CCCc1cc(F)c2oc(C(=O)OCc3ccccc3)c(C)c2c1O`, the lipoxygenase inhibitory activity entry is given as “lipoxygenase inhibitory activity”.

Consider `CCCc1cc(F)c2oc(C(=O)OCC)c(C)c2c1O`, for which the lipoxygenase inhibitory activity result is reported as “lipoxygenase inhibitory activity”.

Take `Cc1cnc(Nc2ccc(O)c(C(C)(C)C)c2C(C)(C)C)s1` [4-[2-(5-methyl)thiazolylamino]-2,3-di-tert-butylphenol]: the lipoxygenase inhibitory activity entry is reported as “lipoxygenase inhibitory activity”.

Another test concerns PCA (passive cutaneous anaphylaxis).
Assay: not given
The settings on record: cited from earlier work.
For the compound `COc1cc(C(=O)Nc2cc(Cl)c(O)c(Cl)c2)cc(OC)c1OC` [2,6-dichloro-4-(3,4,5-trimethoxybenzoyl)aminophenol], the “immune control activity or PCA inhibitory activity” value is on record as “immune control activity or PCA (passive cutaneous anaphylaxis) inhibitory activity”.

The next test relates to Leukotriene B4 formation. Put plainly: Leukotriene B4 formation inhibitory activity (guinea pig neutrophil suspension). In kind it is cell-based. The settings on record: Cavia porcellus, 10^-6 M, guinea pig neutrophils, calcium ionophore A23187 and arachidonic acid, HPLC. The method, then:
Leukotriene B4 formation inhibitory activity
A neutrophil suspension, prepared by administration of casein intraperitoneally to guinea pig, was treated with the test compound and challenged with calcium ionophore A23187 and arachidonic acid. After solvent extraction, leukotriene B4 was assayed by high performance liquid chromatography. The leukotriene B4 formation inhibitory activity of the test compound is expressed as % inhibition at the sample concentration of 10^-6 M. [Method of Douglass et al. described in Prostaglandins vol. 31, p. 358 (1986)]
Turning to `CCCCCCCCC(=O)Nc1cc(C)c(O)c(C)c1` [both CH3, (CH2)7 CH3, 4-nonanoylamino-2,6-dimethylphenol], the inhibition at 1 µM is 57.3%.

Take `CC(C)=CCC/C(C)=C\C(=O)Nc1cc(C)c(O)c(C)c1`: the inhibition at 1 µM was 95.3%.

`COc1cccc(/C=C/C(=O)Nc2cc(C)c(O)c(C)c2)c1` [drawing 42]: the inhibition at 1 µM came to 62.6%.

For `CC(C)=CCC/C(C)=C/C(=O)Nc1cc(C)c(O)c(C)c1`, the inhibition at 1 µM stood at 82.5%.

Consider `CCCCCCCC(=O)Nc1cc(C)c(O)c(C)c1` [both CH3, (CH2)6 CH3], for which the inhibition at 1 µM was determined as 59.7%.

`CC(C)=CCC/C(C)=C/CC/C(C)=C\C(=O)Nc1cc(C)c(O)c(C)c1`: the inhibition at 1 µM is 98.5%.

Consider `CC(C)=CCC/C(C)=C/CC/C(C)=C/C(=O)Nc1cc(C)c(O)c(C)c1`, for which the inhibition at 1 µM is 90.5%.

With `CC(=O)Oc1ccc(CCC(=O)Nc2cc(C)c(O)c(C)c2)cc1OC(C)=O` [drawing 45], the inhibition at 1 µM turned out to be 81.9%.

With `CC(=O)Oc1ccc(/C=C/C(=O)Nc2cc(C)c(O)c(C)c2)cc1OC(C)=O`, the inhibition at 1 µM is 82%.

On to `CCCCCCCC(=O)Nc1cc(C(C)C)c(O)c(C(C)C)c1` [both CH(CH3)2, (CH2)6 CH3], for which the inhibition at 1 µM was determined as 69.5%.

With `CCCCCCC(=O)Nc1cc(C)c(O)c(C)c1` [both CH3, (CH2)5 CH3], the inhibition at 1 µM amounted to 53.1%.

Turning to `CCCCCCCC(=O)Nc1cc(CC)c(O)c(CC)c1` [both C2 H5, (CH2)6 CH3], the inhibition at 1 µM came to 85.6%.

Regarding `COc1ccc(/C=C/C(=O)Nc2cc(C)c(O)c(C)c2)cc1` [drawing 43], the inhibition at 1 µM amounted to 65.6%.

On to `COc1ccc(/C=C(\C)C(=O)Nc2cc(C(C)C)c(O)c(C(C)C)c2)cc1` [drawing 47], for which the inhibition at 1 µM came out at 88.8%.

In the next test the test system is Leukotriene C4 formation. Briefly: Leukotriene C4 formation inhibitory activity (sensitized guinea pig lung fragments). In kind it is cell-based. The conditions noted are these: Cavia porcellus; 10^-5 M; ovalbumin-sensitized guinea pig lung fragments, ovalbumin challenge in vitro, radioimmunoassay. As to the method: Leukotriene C4 formation inhibitory activity
Lung fragments of guinea pig sensitized with ovalbumin were treated with the test compound and challenged with ovalbumin in vitro. After solvent extraction, leukotriene C4 in the supernatant was determined by radioimmunoassay. The leukotriene C4 formation inhibitory activity of the test compound is expressed as % inhibition at the sample concentration of 10^-5 M.
For the compound `CC(C)c1cc(NC(=O)c2cccs2)cc(C(C)C)c1O` [4-(2-thienylcarbonyl)-amino-2,6-diisopropylphenol], the inhibition at 10 µM was found to be 79.9%.

`Cc1cc(NC(=O)CCc2cccs2)cc(C)c1O` [drawing 28]: the inhibition at 10 µM was 45.8%.

With `COc1cccc(CCC(=O)Nc2cc(C)c(O)c(C)c2)c1`, the inhibition at 10 µM was 66.9%.

As to `Cc1cc(NC(=O)c2ccsc2)cc(C)c1O` [drawing 25], the inhibition at 10 µM was 62.9%.

Regarding `COc1ccc(CCC(=O)Nc2cc(C)c(O)c(C)c2)cc1` [drawing 33], the inhibition at 10 µM stood at 49.3%.

For the compound `COc1ccc(CC(C)C(=O)Nc2cc(C)c(O)c(C)c2)cc1` (stereo not shown), the inhibition at 10 µM was determined as 58.9%.

Regarding `COc1ccc(/C=C(\C)C(=O)Nc2cc(C(C)(C)C)c(O)c(C(C)(C)C)c2)cc1`, the inhibition at 10 µM stood at 58.3%.

On to `COc1ccc(/C=C(\C)C(=O)Nc2cc(C)c(O)c(C)c2)cc1` [drawing 37], for which the inhibition at 10 µM is 58.1%.

Take `Cc1ccc(C(=O)Nc2cc(C)c(O)c(C)c2)s1` [drawing 27]: the inhibition at 10 µM stood at 59%.

For `COc1cccc(/C=C/C(=O)Nc2cc(C)c(O)c(C)c2)c1` [drawing 35], the inhibition at 10 µM turned out to be 46%.

Regarding `Cc1cc(NC(=O)c2cccs2)cc(C)c1O`, the inhibition at 10 µM came to 76.6%.

With `Cc1cc(NC(=O)/C=C/c2cccs2)cc(C)c1O` [drawing 30], the inhibition at 10 µM came out at 65%.

In the next test the target is T1, 5-lipoxygenase (Rattus norvegicus, UniProt P12527).
T1 construct: An enzyme solution containing 5-lipoxygenase was prepared from cultured basophilic leukemia cell strain RBL-1 cells; endogenous in cells; host or cells: RBL-1 cells
T1 sequence (P12527 1-673): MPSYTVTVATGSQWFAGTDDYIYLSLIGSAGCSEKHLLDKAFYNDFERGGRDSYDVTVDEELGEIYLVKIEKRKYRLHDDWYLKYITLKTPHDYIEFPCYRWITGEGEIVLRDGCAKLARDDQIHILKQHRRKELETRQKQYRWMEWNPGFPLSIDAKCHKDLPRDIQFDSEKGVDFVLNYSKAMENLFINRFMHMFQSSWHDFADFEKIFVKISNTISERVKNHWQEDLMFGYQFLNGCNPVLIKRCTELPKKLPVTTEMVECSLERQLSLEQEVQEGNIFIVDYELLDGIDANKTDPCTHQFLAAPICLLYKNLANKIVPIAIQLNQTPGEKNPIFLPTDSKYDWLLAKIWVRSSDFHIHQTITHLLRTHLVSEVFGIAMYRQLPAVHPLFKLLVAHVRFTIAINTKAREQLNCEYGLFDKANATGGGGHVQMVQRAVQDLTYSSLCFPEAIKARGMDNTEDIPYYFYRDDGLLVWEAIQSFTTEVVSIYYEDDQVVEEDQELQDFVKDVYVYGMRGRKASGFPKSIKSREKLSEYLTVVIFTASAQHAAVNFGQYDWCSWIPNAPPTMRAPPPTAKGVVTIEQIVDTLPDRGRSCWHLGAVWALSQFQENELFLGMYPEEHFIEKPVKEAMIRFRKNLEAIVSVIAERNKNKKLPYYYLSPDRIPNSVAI
Briefly: 5-Lipoxygenase inhibitory activity (5-HETE formation, enzyme solution from RBL-1 cells). In kind it is biochemical. The conditions noted are these: radiolabelled arachidonic acid substrate, indomethacin, calcium chloride, ATP; RBL-1 enzyme. As to the method: An enzyme solution containing 5-lipoxygenase was prepared from cultured basophilic leukemia cell strain RBL-1 cells, and the reaction was carried out with radiolabelled arachidonic acid as the substrate in the presence of indomethacin, calcium chloride, adenosine triphosphate and the substance to be tested. A predetermined amount of the reaction mixture was spotted on a thin layer, separated by development, and then the radioactivity of the 5-HETE (5-hydroxyeicosatetraenic acid) fraction of the enzyme reaction product was measured to give the index of the 5-lipoxygenase activity. […] [Method of M. Furukawa et al. described in Biochimica et Biophysica acta, vol. 795, p. 458 (1984)]
As to `COc1cccc(/C=C/C(=O)Nc2cc(C)c(O)c(C)c2)c1` [drawing 16], the IC50 turned out to be 0.24 µM.

As to `CCCCCCCCC(=O)Nc1cc(C)c(O)c(C)c1` [both CH3, (CH2)7 CH3, 4-nonanoylamino-2,6-dimethylphenol], the IC50 was 0.4 µM.

For the compound `CC(C)c1cc(NC(=O)c2cccs2)cc(C(C)C)c1O` [4-(2-thienylcarbonyl)-amino-2,6-diisopropylphenol], the IC50 worked out at 0.15 µM.

As for `COc1ccc(/C=C(\C)C(=O)Nc2cc(C(C)C)c(O)c(C(C)C)c2)cc1` [drawing 22], the concentration for half-maximal inhibition (IC50) was 0.15 µM.

`Cc1ccc(C(=O)Nc2cc(C)c(O)c(C)c2)s1` [drawing 8]: the IC50 amounted to 0.27 µM.

As for `Cc1cc(NC(=O)CCc2cccs2)cc(C)c1O` [drawing 13], the IC50 was determined as 0.76 µM.

`COc1ccc(CCC(=O)Nc2cc(C)c(O)c(C)c2)cc1` [drawing 21]: the IC50 came out at 0.25 µM.

Take `Cc1cc(NC(=O)c2cc3ccccc3s2)cc(C)c1O`: the IC50 was found to be 0.21 µM.

Turning to `COc1ccc(/C=C/C(=O)Nc2cc(C)c(O)c(C)c2)cc1` [drawing 17], the IC50 is 0.22 µM.

For the compound `CCCCCCCC(=O)Nc1cc(C)c(O)c(C)c1` [both CH3, (CH2)6 CH3], the 50% inhibitory concentration (IC50) is 0.33 µM.

For `Cc1cc(NC(=O)c2ccsc2)cc(C)c1O` [drawing 7], the IC50 stood at 0.81 µM.

As to `CC=CC=CC(=O)Nc1cc(C)c(O)c(C)c1`, the IC50 was 0.4 µM.

Regarding `Cc1cc(NC(=O)/C=C/c2cccs2)cc(C)c1O` [drawing 11], the IC50 was found to be 0.2 µM.

Consider `COc1ccc(/C=C(\C)C(=O)Nc2cc(C)c(O)c(C)c2)cc1` [drawing 19], for which the IC50 came out at 0.15 µM.

For the compound `CCCCCCC(=O)Nc1cc(C)c(O)c(C)c1` [both CH3, (CH2)5 CH3], the half-inhibitory concentration (IC50) was 0.3 µM.

Turning to `Cc1cc(NC(=O)/C=C/c2cccn2C)cc(C)c1O`, the IC50 was determined as 0.44 µM.

For the compound `CC(=O)Oc1ccc(CCC(=O)Nc2cc(C)c(O)c(C)c2)cc1OC(C)=O` [drawing 20], the IC50 came to 0.2 µM.
